# According to PubChem BioAssay (NCI):
#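 Interpolation was linear, between the two tested concentrations surrounding the appropriate level; five concentrations were tested over 48 hours in 96-well plates. Here, GI50 denotes the concentration required for 50% inhibition of growth. At the TGI there is no net growth.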
# Columns and labels:
# Experiment in all cases: NCI-60 cell line screen, 48 h
# [1] = system: 786-0 renal
# [2] = system: A498 renal
# [3] = system: A549 NSCLC
# [4] = system: ACHN renal
# [5] = system: BT-549 breast
# [6] = system: CAKI-1 renal
# [7] = system: CCRF-CEM leukemia
# [8] = system: COLO 205 colon
# [9] = system: DU-145 prostate
# [10] = system: EKVX NSCLC
# [11] = system: HCC-2998 colon
# [12] = system: HCT-116 colon
# [13] = system: HCT-15 colon
# [14] = system: HL-60(TB) leukemia
# [15] = system: HOP-62 NSCLC
# [16] = system: HS 578T breast
# [17] = system: HT29 colon
# [18] = system: IGROV1 ovarian
# [19] = system: K-562 leukemia
# [20] = system: KM12 colon
# [21] = system: LOX IMVI melanoma
# [22] = system: M14 melanoma
# [23] = system: MCF7 breast
# [24] = system: MDA-MB-231 breast
# [25] = system: MDA-MB-435
# [26] = system: MOLT-4 leukemia
# [27] = system: NCI-H23 lung
# [28] = system: NCI-H460 lung
# [29] = system: NCI-H522 lung
# [30] = system: NCI/ADR-RES ovarian
# [31] = system: OVCAR-3 ovarian
# [32] = system: OVCAR-5 ovarian
# [33] = system: OVCAR-8 ovarian
# [34] = system: PC-3 prostate
# [35] = system: RPMI-8226 leukemia
# [36] = system: RXF 393 renal
# [37] = system: SF-268 CNS
# [38] = system: SF-295 CNS
# [39] = system: SF-539 CNS
# [40] = system: SK-MEL-2 melanoma
# [41] = system: SK-MEL-28 melanoma
# [42] = system: SK-MEL-5 melanoma
# [43] = system: SK-OV-3 ovarian
# [44] = system: SN12C renal
# [45] = system: SNB-19 CNS
# [46] = system: SNB-75 CNS
# [47] = system: SR leukemia
# [48] = system: SW-620 colon
# [49] = system: T-47D breast
# [50] = system: TK-10 renal
# [51] = system: U251 CNS
# [52] = system: UACC-257 melanoma
# [53] = system: UACC-62 melanoma
# [54] = system: UO-31 renal
compound,measurement,setting,value
C=C1C(=O)O[C@H]2C[C@@H]1CC/C(C)=C/CC/C(C)=C/CC[C@H]2C,GI50,[1],14.3 µM
same,TGI,[1],28.2 µM
same,GI50,[2],20.6 µM
same,TGI,[2],36.6 µM
same,GI50,[3],9.73 µM
same,TGI,[3],33 µM
same,GI50,[4],10.6 µM
same,TGI,[4],24.6 µM
same,GI50,[5],17.1 µM
same,TGI,[5],41.5 µM
same,GI50,[6],17 µM
same,TGI,[6],33.6 µM
same,GI50,[7],18.8 µM
same,TGI,[7],48.5 µM
same,GI50,[8],30.1 µM
same,TGI,[8],> 83.7 µM
same,GI50,[9],18 µM
same,TGI,[9],33.5 µM
same,GI50,[10],19.7 µM
same,TGI,[10],42.8 µM
same,GI50,[11],14.5 µM
same,TGI,[11],28.9 µM
same,GI50,[12],7.82 µM
same,TGI,[12],21.3 µM
same,GI50,[13],15.7 µM
same,TGI,[13],32.9 µM
same,GI50,[14],7.14 µM
same,TGI,[14],16.2 µM
same,GI50,[15],12.5 µM
same,TGI,[15],27.1 µM
same,GI50,[16],27.3 µM
same,TGI,[16],> 78 µM
same,GI50,[17],28.3 µM
same,TGI,[17],> 100 µM
same,GI50,[18],18.8 µM
same,TGI,[18],40 µM
same,GI50,[19],14 µM
same,TGI,[19],> 57.1 µM
same,GI50,[20],18.1 µM
same,TGI,[20],44.4 µM
same,GI50,[21],5.56 µM
same,TGI,[21],12.3 µM
same,GI50,[22],14.2 µM
same,TGI,[22],29.3 µM
same,GI50,[23],14.7 µM
same,TGI,[23],56.7 µM
same,GI50,[24],18.9 µM
same,TGI,[24],38.9 µM
same,GI50,[25],7.51 µM
same,TGI,[25],27.2 µM
same,GI50,[26],10.6 µM
same,TGI,[26],> 24.6 µM
same,GI50,[27],20.6 µM
same,TGI,[27],41 µM
same,GI50,[28],23.2 µM
same,TGI,[28],> 59 µM
same,GI50,[29],23.5 µM
same,TGI,[29],> 66.3 µM
same,GI50,[30],7.43 µM
same,TGI,[30],21.5 µM
same,GI50,[31],3.94 µM
same,TGI,[31],19 µM
same,GI50,[32],17.2 µM
same,TGI,[32],34.6 µM
same,GI50,[33],15.7 µM
same,TGI,[33],39.3 µM
same,GI50,[34],8.54 µM
same,TGI,[34],20.9 µM
same,GI50,[35],5.46 µM
same,TGI,[35],13.9 µM
same,GI50,[36],9.67 µM
same,TGI,[36],27.7 µM
same,GI50,[37],19.3 µM
same,TGI,[37],46.1 µM
same,GI50,[38],13.4 µM
same,TGI,[38],32.7 µM
same,GI50,[39],15.7 µM
same,TGI,[39],33.6 µM
same,GI50,[40],30.9 µM
same,TGI,[40],> 61.9 µM
same,GI50,[41],21.4 µM
same,TGI,[41],42.9 µM
same,GI50,[42],17.3 µM
same,TGI,[42],32.2 µM
same,GI50,[43],19.2 µM
same,TGI,[43],38.9 µM
same,GI50,[44],20.6 µM
same,TGI,[44],39 µM
same,GI50,[45],23.2 µM
same,TGI,[45],55.2 µM
same,GI50,[46],19.4 µM
same,TGI,[46],35.2 µM
same,GI50,[47],7.14 µM
same,TGI,[47],15.2 µM
same,GI50,[48],14.7 µM
same,TGI,[48],45.9 µM
same,GI50,[49],25 µM
same,TGI,[49],51.6 µM
same,GI50,[50],20 µM
same,TGI,[50],37.7 µM
same,GI50,[51],14.6 µM
same,TGI,[51],28.3 µM
same,GI50,[52],11.5 µM
same,TGI,[52],29.4 µM
same,GI50,[53],19.3 µM
same,TGI,[53],34.6 µM
same,GI50,[54],1.12 µM
same,TGI,[54],4.02 µM
